Data on 19 compounds can be found in patent US20060148858A1, “1, 2-Azole derivatives with hypoglycemic and hypolipidemic activity” (priority 2002, published 2006).

The structures appear in SMILES notation.

One series deals with T1, PPARδ-RXRα heterodimer (Homo sapiens, UniProt Q03181).
T1 construct: expressed in transfected cells; host or cells: COS-1
T1 sequence (Q03181 1-441): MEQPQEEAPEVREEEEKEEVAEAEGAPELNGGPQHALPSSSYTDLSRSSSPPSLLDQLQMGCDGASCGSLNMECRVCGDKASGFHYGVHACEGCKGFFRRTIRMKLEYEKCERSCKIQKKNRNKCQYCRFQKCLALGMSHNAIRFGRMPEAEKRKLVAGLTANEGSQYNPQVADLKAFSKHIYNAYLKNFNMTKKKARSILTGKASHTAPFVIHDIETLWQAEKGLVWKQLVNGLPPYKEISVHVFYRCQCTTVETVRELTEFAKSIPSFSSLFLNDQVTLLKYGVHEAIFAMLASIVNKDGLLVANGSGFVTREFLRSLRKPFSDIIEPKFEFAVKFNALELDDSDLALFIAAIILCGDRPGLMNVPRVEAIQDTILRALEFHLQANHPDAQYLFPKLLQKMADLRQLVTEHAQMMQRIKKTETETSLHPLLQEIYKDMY
T1 sequence (P19793 1-462 partner): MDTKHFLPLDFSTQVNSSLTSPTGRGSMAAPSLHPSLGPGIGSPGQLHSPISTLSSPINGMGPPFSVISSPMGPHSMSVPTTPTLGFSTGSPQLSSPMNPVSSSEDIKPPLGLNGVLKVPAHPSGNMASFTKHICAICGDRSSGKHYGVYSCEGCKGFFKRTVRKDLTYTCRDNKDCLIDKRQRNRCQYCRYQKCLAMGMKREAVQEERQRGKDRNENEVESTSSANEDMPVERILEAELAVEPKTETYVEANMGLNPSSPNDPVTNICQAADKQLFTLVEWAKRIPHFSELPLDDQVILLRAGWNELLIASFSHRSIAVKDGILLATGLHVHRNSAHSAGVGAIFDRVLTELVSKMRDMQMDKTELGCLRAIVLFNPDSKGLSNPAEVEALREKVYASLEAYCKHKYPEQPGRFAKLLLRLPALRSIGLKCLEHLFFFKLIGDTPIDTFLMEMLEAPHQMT
Nature of the series: PPARδ-RXRα heterodimer ligand activity, luciferase reporter in COS-1 transformant (Test Example 4). Conditions: COS-1 transformant (hPPARδ, hRXRα, reporter), 36-48 hours, concentration for 50% of the maximum fold induction. It is filed as cell-based. The procedure: The transformant obtained in Reference Example 9a was suspended in DMEM medium (produced by Life Technologies, Inc., USA) containing 0.1% fatty acid-free bovine serum albumin (BSA) (produced by Wako Pure Chemical Industries, Ltd.), and inoculate to each well of a 96-well white plate (produced by Corning Costar Corporation, USA) by 80 μl at 1×10^4 cells/well. Then the test compound (20 μl) was added and cultured at 37° C. under 5% CO2 for 36-48 hours. After removing the medium from the 96-well white plate, 40 μl of PIKKAGENE LT 7.5 (produced by Wako Pure Chemical Industries, Ltd.) diluted twice with HBSS (HANKS' BALANCED SALT SOLUTION)(produced by BIO WHITTAKER Inc., USA), was added. After stirring, the luciferase activity was determined using 1420 ARVO Multilabel Counter (produced by PerkinElmer Inc., USA).
A fold induction was calculated based on the luciferase activity of each test compound by taking the luciferase activity in the non-treatment group as 1. The values of the test compound concentration and the fold induction were analyzed using PRISM (produced by GraphPad Software Inc. USA) to calculate the EC50 values, the effective concentration of a test compound for 50% of the maximum fold induction.
COS-1 cells were inoculated to a 150 cm^2 cell culture flask (produced by Corning Costar Corporation, USA) at the density of 5×10^6 cells/50 ml, and cultured at 37° C. under 5% CO2 conditions for 24 hours. Subsequently, a DNA was introduced into the cell under the condition shown below using Lipofectamine (produced by Invitrogen, USA).
First, Lipofectamine (125 μl), PLUS Reagent (100 μl, produced by Invitrogen, USA), plasmid pMCMVneo-hPPARδ (2.5 μg) obtained in Reference Example 3a, plasmid pMCMVneo-hRXRα (2.5 μg) obtained in Reference Example 4a and reporter plasmid pGL3-4ERPP-TK neo (5 μg) obtained in Reference Example 5a, and pRL-tk (5 μg, produced by Promega, USA) were mixed with opti-MEM (5 ml, produced by Invitrogen, USA) to give a transfection mixture.
Then, the above-mentioned transfection mixture and opti-MEM (20 ml) were added to COS-1 cells washed with opti-MEM, and the cells were cultured at 37° C. under 5% CO2 conditions for 3 hours. DMEM medium (25 ml, produced by Life Technologies, Inc., USA) containing 0.1% fatty acid-free bovine serum albumin (BSA) (produced by Wako Pure Chemical Industries, Ltd.) was added to the obtained COS-1 cells, and the cells were cultured at 37° C. under 5% CO2 conditions for 18-24 hours to give a transformant.
(In general: A reporter such as luciferase makes a cellular process visible.)

A word on the EC50: it is the midpoint of the concentration-response curve. A low value points to greater potency. The term melting point denotes the temperature, or range, at which the solid turns liquid. On to `CCCCOc1nn(-c2ccc(C(F)(F)F)cn2)cc1CCCOc1ccc(CCC(=O)O)c(OCC)c1` [Example 155, 3-[4-(3-{3-butoxy-1-[5-(trifluoromethyl)-2-pyridyl]-1H-pyrazol-4-yl}propoxy)-2-ethoxyphenyl]propanoic acid], for which the melting point fell in the range of 102 to 103 °C. Also, the midpoint of the response at PPARδ-RXRα heterodimer, the EC50, lay at 3.8 nM.
`CCOc1nn(-c2ccc(C(F)(F)F)cn2)cc1CCCOc1cccc(CC(=O)O)c1F` [Example 186, [3-(3-{3-ethoxy-1-[5-(trifluoromethyl)-2-pyridyl]-1H-pyrazol-4-yl}propoxy)-2-fluorophenyl]acetic acid] displayed a melting point of 120 to 121 °C. Also, the EC50 on PPARδ-RXRα heterodimer stood at 1.9 nM.
The compound `CCCOc1nn(-c2ccc(C(F)(F)F)cn2)cc1CCCOc1ccc(CCC(=O)O)c(OCC)c1` [Example 153, 3-[2-ethoxy-4-(3-{3-propoxy-1-[5-(trifluoromethyl)-2-pyridyl]-1H-pyrazol-4-yl}propoxy)phenyl]propanoic acid] returned a melting point of 112 to 113 °C. This compound gave an EC50 on PPARδ-RXRα heterodimer of 1.9 nM.
As for `CCOc1nn(-c2ccc(C(F)(F)F)cn2)cc1CCOc1ccc(CCC(=O)O)c(OC)c1` [Example 75, 3-[4-(2-{3-ethoxy-1-[5-(trifluoromethyl)-2-pyridinyl]-1H-pyrazol-4-yl}ethoxy)-2-methoxyphenyl]propanoic acid], the melting point was 147 to 148 °C. The same compound showed an EC50 on PPARδ-RXRα heterodimer of 3.8 nM.
The like results for `CCCc1nn(-c2ccc(C(F)(F)F)cn2)cc1CCCOc1ccc(CC(=O)O)c(C)c1` [Example 94, [2-methyl-4-(3-{3-propyl-1-[5-(trifluoromethyl)-2-pyridyl]-1H-pyrazol-4-yl}propoxy)phenyl]acetic acid] were, in that order, 134 to 135 °C and 4 nM.
The compound `Cc1cc(OCc2cn(-c3ccc(C(F)(F)F)cn3)nc2C)ccc1CCC(=O)O` [Example 123, 3-[2-methyl-4-({3-methyl-1-[5-(trifluoromethyl)-2-pyridyl]-1H-pyrazol-4-yl}methoxy)phenyl]propionic acid] yielded a melting point of 144 to 145 °C. Further, the EC50 on PPARδ-RXRα heterodimer worked out at 2.9 nM.
For `CCCc1cn(CC(=O)O)nc1OCCCc1cn(-c2ccc(C(F)(F)F)cn2)nc1OCC` [Example 255, [3-(3-{3-ethoxy-1-[5-(trifluoromethyl)-2-pyridyl]-1H-pyrazol-4-yl}propoxy)-4-propyl-1H-pyrazol-1-yl]acetic acid], in that order: 134 to 135 °C and 9.5 nM.
The like results for `CCCc1nn(-c2ccc(C(F)(F)F)cn2)cc1CCCCOc1cccc(CC(=O)O)c1` [Example 59, [3-(4-{3-propyl-1-[5-(trifluoromethyl)-2-pyridinyl]-1H-pyrazol-4-yl}butoxy)phenyl]acetic acid] were, in that order, 96 to 97 °C and 9.7 nM.
In the case of `CCOc1nn(-c2ccc(C(F)(F)F)cn2)cc1CCOc1cc(CCC(=O)O)n(-c2ccccc2)n1` [Example 56, 3-[3-(2-{3-ethoxy-1-[5-(trifluoromethyl)-2-pyridinyl]-1H-pyrazol-4-yl}ethoxy)-1-phenyl-1H-pyrazol-5-yl]propanoic acid], the melting point lay in the range of 155 to 156 °C. Further, the half-maximal effective concentration (EC50) on PPARδ-RXRα heterodimer was found to be 2.8 nM.
The like results for `CCOc1nn(-c2ccc(C(F)(F)F)cc2)cc1CCCOc1cccc(CC(=O)O)c1` [Example 113, [3-(3-{3-ethoxy-1-[4-(trifluoromethyl)phenyl]-1H-pyrazol-4-yl}propoxy)phenyl]acetic acid] were, in that order, 108 to 109 °C and 4.8 nM.
The like results for `CCCc1nn(-c2ccc(C(F)(F)F)cn2)cc1CCCOc1cccc(CC(=O)O)c1` [Example 44, [3-(3-{3-propyl-1-[5-(trifluoromethyl)-2-pyridyl]-1H-pyrazol-4-yl}propoxy)phenyl]acetic acid] were, in that order, 106 to 107 °C and 3.9 nM.
In turn, `CCOc1nn(-c2ccc(C(F)(F)F)cn2)cc1CCCOc1ccc(CCC(=O)O)cc1OC` [Example 150, 3-[4-(3-{3-ethoxy-1-[5-(trifluoromethyl)-2-pyridyl]-1H-pyrazol-4-yl}propoxy)-3-methoxyphenyl]propanoic acid] displayed a melting point of 131 to 132 °C. Further, a half-maximal effect on PPARδ-RXRα heterodimer (EC50) was put at 2.7 nM.
`CCCc1nn(-c2ccc(C(F)(F)F)cn2)cc1CCCOc1ccc(CCC(=O)O)c(C)c1` [Example 65, 3-[2-methyl-4-(3-{3-propyl-1-[5-(trifluoromethyl)-2-pyridinyl]-1H-pyrazol-4-yl}propoxy)phenyl]propanoic acid] had a melting point of 124 to 126 °C. In addition, the EC50 at PPARδ-RXRα heterodimer was determined as 1.8 nM.
The like results for `CCOc1nn(-c2ccc(C(F)(F)F)cn2)cc1CCCOc1ccc(CCC(=O)O)c(OC)c1` [Example 85, 3-[4-(3-{3-ethoxy-1-[5-(trifluoromethyl)-2-pyridyl]-1H-pyrazol-4-yl}propoxy)-2-methoxyphenyl]propionic acid] were, in that order, 120 to 121 °C and 6 nM.
The like results for `COc1cc(CCC(=O)O)ccc1OCCCc1cn(-c2ccc(C(F)(F)F)cn2)nc1C(C)C` [Example 279, 3-[3-methoxy-4-(3-{1-[5-(trifluoromethyl)-2-pyridyl]-3-isopropyl-1H-pyrazol-4-yl}propoxy)phenyl]propanoic acid] were, in that order, 118 to 119 °C and 5.1 nM.
`CCCOc1cc(OCCCc2cn(-c3ccc(C(F)(F)F)cn3)nc2OCC)ccc1CCC(=O)O` [Example 117, 3-[4-(3-{3-ethoxy-1-[5-(trifluoromethyl)-2-pyridinyl]-1H-pyrazol-4-yl}propoxy)-2-propoxyphenyl]propanoic acid] had a melting point of 126 to 127 °C. Moreover, the EC50 at PPARδ-RXRα heterodimer is 1.6 nM.
The like results for `Cc1nn(-c2ccc(C(F)(F)F)cn2)cc1CCCOc1cccc(CC(=O)O)c1` [Example 127, [3-(3-{3-methyl-1-[5-(trifluoromethyl)-2-pyridyl]-1H-pyrazol-4-yl}propoxy)phenyl]acetic acid] were, in that order, 96 to 97 °C and 3.9 nM.
The like results for `CCOc1cc(OCCCc2cn(-c3ccc(C(F)(F)F)cn3)nc2C)ccc1CCC(=O)O` [Example 126, 3-[2-ethoxy-4-(3-{3-methyl-1-[5-(trifluoromethyl)-2-pyridyl]-1H-pyrazol-4-yl}propoxy)phenyl]propionic acid] were, in that order, 129 to 130 °C and 2.2 nM.
Consider `CCCc1nn(-c2ccc(C(F)(F)F)cn2)cc1CCCOc1ccc(CCC(=O)O)cc1OC` [Example 96, 3-[3-methoxy-4-(3-{3-propyl-1-[5-(trifluoromethyl)-2-pyridyl]-1H-pyrazol-4-yl}propoxy)phenyl]propionic acid], for which the melting point is 126 to 127 °C. Besides, on PPARδ-RXRα heterodimer, the midpoint of the response, the EC50, lay at 1.7 nM.
